Values belong to the molecule of their own block, whether it stands above or below them.
Key:
[1] = tested on: human MAL; test: Phage display screening of TIR domain-derived peptide library against immobilized MAL, NGS analysis after four rounds; type: binding; details: for NGS count: phages remaining after fourth round
Protocol: (§1) First, vector cloning was performed by synthesizing a DNA sequence for expressing each peptide belonging to the library constructed in Example 1. Vector cloning was performed using p3/p8 phagemids.
(§2) After the fourth round, the remaining phages were obtained by binding to the finally immobilized target proteins, and peptide sequences binding to the target and the relative distribution of each sequence were confirmed by performing NGS analysis on phagemids in the phages.

[2] = tested on: human MYD88; test: Phage display screening of TIR domain-derived peptide library against immobilized MyD88, NGS analysis after four rounds; type: binding; details: for NGS count: phages remaining after fourth round
Protocol: as §1, §2

[3] = target: human MyD88 (human) (UniProt Q99836); test: P8 phage display panning on plate-immobilised MyD88, after round 4, NGS
[4] = target: human MAL (human) (UniProt P58753); test: P3 phage display panning on plate-immobilised MAL, after round 4, NGS
[5] = P3_MAL: library displayed on P3 coat protein
[6] = P3_MAL: relative distribution of the sequence in NGS
[7] = P3_MyD88: library displayed on P3 coat protein
[8] = P3_MyD88: relative distribution of the sequence in NGS
[9] = P8_MAL: library displayed on P8 coat protein
[10] = P8_MAL: relative distribution of the sequence in NGS

Sequence of UniProt Q99836 (Q99836 155-296 limits assumed): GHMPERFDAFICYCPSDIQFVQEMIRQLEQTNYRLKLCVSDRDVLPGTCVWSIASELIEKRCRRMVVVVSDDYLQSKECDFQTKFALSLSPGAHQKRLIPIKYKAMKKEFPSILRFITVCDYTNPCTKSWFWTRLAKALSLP
Sequence of UniProt P58753 (P58753 79-221 limits assumed): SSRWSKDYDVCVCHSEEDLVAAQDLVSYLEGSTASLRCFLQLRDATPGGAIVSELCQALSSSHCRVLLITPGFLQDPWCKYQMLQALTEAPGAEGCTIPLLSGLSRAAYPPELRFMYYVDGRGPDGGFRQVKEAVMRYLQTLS

Molecule: DHHLDLPRGKAIKPEILG
NGS count [1, 5]: 2280 | Population [1, 6]: 0.86% | NGS count [2, 7]: 26722 | Population [2, 8]: 7.78%

Molecule: DTKLKKGESIAPELLR
NGS count [1, 9]: 5617 | Population [1, 10]: 1.74% | NGS count [2, 7]: 2465 | Population [2, 8]: 0.72%

Molecule: HHKGSYGEALAEHEKR
NGS count [1, 5]: 3056 | Population [1, 6]: 1.15%

Molecule: KNLFNELVSKNIRTFM
NGS count [1, 5]: 3259 | Population [1, 6]: 1.22% | NGS count [2, 7]: 8543 | Population [2, 8]: 2.49%

Molecule: WALQELVKILQAKIFL
NGS count [1, 9]: 227 | Population [1, 10]: 0.07%

Molecule: YAFTGHLHRYLVQRGV
NGS count [1, 5]: 43764 | Population [1, 6]: 16.44% | NGS count [2, 7]: 13420 | Population [2, 8]: 3.91%

Molecule: AWALHQLQQIINWHET
NGS count [1, 9]: 232 | Population [1, 10]: 0.07%

Molecule: VEPTQVRKQSGAVENA
NGS count [1, 5]: 2283 | Population [1, 6]: 0.86%

Molecule: LFFWESLKQLLRSDGR
NGS count [1, 9]: 22560 | Population [1, 10]: 5.97%

Molecule: LKWGDPYFWSKLRYAM
NGS count [1, 5]: 5128 | Population [1, 6]: 1.93% | NGS count [2, 7]: 8310 | Population [2, 8]: 2.42%

Molecule: EWIREQLRPALKERLP
NGS count [1, 5]: 2354 | Population [1, 6]: 0.88% | NGS count [2, 7]: 16821 | Population [2, 8]: 4.90%

Molecule: SLRKNLVSNLIEEFKR
NGS count [1, 5]: 3569 | Population [1, 6]: 1.34%

Molecule: HQAFWNRLWAKLKPPT
NGS count [1, 5]: 1932 | Population [1, 6]: 0.73%

Molecule: AFLYTFLINLTHPTNF
NGS count [1, 9]: 51063 | Population [1, 10]: 18.86%

Molecule: KEVEGWRDALTKVASL
NGS count [1, 5]: 3758 | Population [1, 6]: 1.41% | NGS count [2, 7]: 5187 | Population [2, 8]: 1.80%

Molecule: GFLYQAFAREGFKIFM
NGS count [1, 5]: 1764 | Population [1, 6]: 0.66% | NGS count [2, 7]: 2579 | Population [2, 8]: 0.75%

Molecule: KFIWDIINAISSQIRV
NGS count [1, 9]: 146

Molecule: RNNFIGHLYQALYRIG
NGS count [1, 9]: 3120 | Population [1, 10]: 0.96%

Molecule: DFLNWFIALKSTVIEN
NGS count [1, 9]: 867

Molecule: AFFWAQLKSVLGNPTM
NGS count [1, 9]: 28801 | Population [1, 10]: 8.90%

Molecule: PNLRTKVLNYLMRTKT
NGS count [1, 5]: 26931 | Population [1, 6]: 10.12%

Molecule: SSFREGLWRLLELSKK
NGS count [1, 5]: 29955 | Population [1, 6]: 11.26% | NGS count [2, 7]: 79510 | Population [2, 8]: 23.15%

Molecule: FLNFRGLDVRNYFLGH
NGS count [1, 5]: 2855 | Population [1, 6]: 1.07%

Molecule: TFLGHLYNALVQAGIH
NGS count [1, 9]: 24732 | Population [1, 10]: 7.64%

Molecule: KLFWEKFKEFFLPSLSR
NGS count [1, 9]: 4888 | Population [1, 10]: 1.51%

Molecule: LQNQWKLALTKVANLV
NGS count [1, 5]: 2285 | Population [1, 6]: 0.86%

Molecule: LVAHEISKKMKIFATI
NGS count [1, 5]: 1671 | Population [1, 6]: 0.63% | NGS count [2, 7]: 17452 | Population [2, 8]: 5.08%

Molecule: RNFVAYLFQALANKGI
NGS count [1, 9]: 27950 | Population [1, 10]: 8.63%

Molecule: DWFLSKLSQHILKREK
NGS count [1, 5]: 4580 | Population [1, 6]: 1.72%

Molecule: YFLHFLLFSRPETEYI
NGS count [1, 9]: 17198 | Population [1, 10]: 5.31%

Molecule: AYANFRQGLLRLLELA
NGS count [1, 9]: 466

Molecule: ESILNQLRRSSQSIAN
NGS count [1, 5]: 3680 | Population [1, 6]: 1.38% | NGS count [2, 7]: 1976 | Population [2, 8]: 0.58%

Molecule: WFYERLVSLILRDTKV
NGS count [1, 9]: 79000 | Population [1, 10]: 24.40%

Molecule: NELVHVWSSKANSLVG
NGS count [1, 5]: 1836 | Population [1, 6]: 0.69% | NGS count [2, 7]: 8816 | Population [2, 8]: 2.57%

Molecule: WFLTAFRMAMDQVADT
NGS count [1, 9]: 353

Molecule: NQWRNALTAAANLSGW
NGS count [1, 5]: 25831 | Population [1, 6]: 9.71% | NGS count [1, 9]: 848 | NGS count [2, 7]: 28662 | Population [2, 8]: 8.35%

Molecule: YNFISHLYDALHRNRI
NGS count [1, 5]: 2678 | Population [1, 6]: 1.01% | NGS count [2, 7]: 2891 | Population [2, 8]: 0.84%

Molecule: YLKWGYPWFWDRLRFA
NGS count [1, 5]: 1680 | Population [1, 6]: 0.63% | NGS count [1, 9]: 517 | NGS count [2, 7]: 7321 | Population [2, 8]: 2.13%

Molecule: KWFWDKLIYALSRNPH
NGS count [1, 5]: 2796 | Population [1, 6]: 1.05%

Molecule: RGFLSHLRHHLQAKDH
NGS count [1, 5]: 15065 | Population [1, 6]: 5.66%

Molecule: AFFWEQLRTVLGKPTM
NGS count [1, 9]: 11826 | Population [1, 10]: 3.65%

Molecule: QLIQQWIELHLHQLHL
NGS count [1, 9]: 9394 | Population [1, 10]: 2.90% | NGS count ([2]; P8_MyD88: library displayed on P8 coat protein): 1605 | Population ([2]; P8_MyD88: relative distribution of the sequence in NGS): 0.62%

Molecule: LKVESWRQALEKAGKL
NGS count [1, 5]: 5180 | Population [1, 6]: 2.32% | NGS count [2, 7]: 16847 | Population [2, 8]: 4.91%

Molecule: WFMMKFRTVLDHVNDV
NGS count [1, 9]: 2269

Molecule: HFFWIQLKSILGETSF
NGS count [1, 9]: 3624 | Population [1, 10]: 1.12%

NGS count [3]: 5890 count | Population [3]: 2.66%
B1: … (peptide)
peptide: YASYDDNDYYWVTHVLLRHL

NGS count [4]: 3060 count | Population [4]: 1.15%
B2: … (peptide)
peptide: HHKGSYGEALAEHEKR

NGS count [4]: 2800 count | Population [4]: 1.05%
B3: … (peptide)
peptide: KWFWDKLIYALSRNPH

NGS count [4]: 2860 count | Population [4]: 1.07%
B4: … (peptide)
peptide: FLNFRGLDVRNYFLGH

NGS count [3]: 4900 count | Population [3]: 1.89%
B5: … (peptide)
peptide: VQWDDPWFWDKLAYAM

NGS count [4]: 2280 count | Population [4]: 0.86%
B6: … (peptide)
peptide: VEPTQVRKQSGAVENA

NGS count [3]: 19400 count | Population [3]: 7.47%
B7: … (peptide)
peptide: DWVWDYLLPNLEGPAG

NGS count [3]: 7590 count | Population [3]: 2.92%
B8: … (peptide)
peptide: DSLFWDRLLYSLHVTE

NGS count [3]: 14400 count | Population [3]: 5.55%
B9: … (peptide)
peptide: WALDELLQILHARELF

NGS count [3]: 13100 count | Population [3]: 5.06%
B10: … (peptide)
peptide: DPQDLDWFYERLVSLL

NGS count [4]: 4580 count | Population [4]: 1.72%
B11: … (peptide)
peptide: DWFLSKLSQHILKREK

NGS count [4]: 2280 count | Population [4]: 0.86%
B12: … (peptide)
peptide: LQNQWKLALTKVANLV

NGS count [3]: 5730 count | Population [3]: 2.21%
B13: … (peptide)
peptide: DPQDLQWFYERLVSLI

NGS count [4]: 4430 count | Population [4]: 1.66%
B14: … (peptide)
peptide: KMQKWKDALYEAANLS

NGS count [4]: 15100 count | Population [4]: 5.66%
B15: … (peptide)
peptide: RGFLSHLRHHLQAKDH

NGS count [4]: 1930 count | Population [4]: 0.73%
B16: … (peptide)
peptide: HQAFWNRLWAKLKPPT

NGS count [3]: 54800 count | Population [3]: 21.1%
B17: … (peptide)
peptide: DPQDLDWFYERLVSLF

NGS count [3]: 25200 count | Population [3]: 9.72%
B18: … (peptide)
peptide: LGYHWIDWEYFVGIED

NGS count [3]: 10600 count | Population [3]: 4.07%
B19: … (peptide)
peptide: PQDLEWFYERLVSLIL

NGS count [3]: 5340 count | Population [3]: 2.06%
B20: … (peptide)
peptide: SAAYDDFWDRLIRMIE

NGS count [3]: 10500 count | Population [3]: 4.05%
B21: … (peptide)
peptide: WALDELLKILYANETM

NGS count [4]: 14900 count | Population [4]: 5.61%
B22: … (peptide)
peptide: RLLKWKEALHQFHSWV

NGS count [4]: 2300 count | Population [4]: 0.86%
B23: … (peptide)
peptide: SFFWNKLRYHLPAPQH

NGS count [4]: 3570 count | Population [4]: 1.34%
B24: … (peptide)
peptide: SLRKNLVSNLIEEFKR

NGS count [4]: 26900 count | Population [4]: 10.1%
B25: … (peptide)
peptide: PNLRTKVLNYLMRTKT

NGS count [3]: 7350 count | Population [3]: 2.83%
B26: … (peptide)
peptide: WDFASNMEQFWDRLYY

NGS count [3]: 7160 count | Population [3]: 2.76%
B27: … (peptide)
peptide: YLLLSVFQTIFARRTE
